How the values were obtained:
CB1R [1] = target: T1, CB1R (Mus musculus, UniProt P47746); test: CP 55,940-induced hypothermia in mice; format: in vivo; conditions: CP55,940 0.1–3 mg/kg i.p.
T1 construct: from tissue; host or cells: living C57BL/6J mice (whole animal; brain and peripheral tissues)
Protocol: (§1) Drugs were applied in a volume of 1 μL over the course of 2 min via 33 g internal injector (P1 Technologies, Roanoke, VA, USA) connected with the 2 µL precision glass Hamilton syringe (USA) by a PE-20 tubing (Fisher Scientific, Hampton, NH, USA). The infusion rate and volume were controlled through the use of the syringe pump (model PHD 22/2000, Harvard Apparatus, Cambridge, MA, USA). Following 2 min infusion, injectors were left in place for additional 3 min to allow a passive diffusion of drugs into the tissue.
(§2) Catalepsy was assessed using the bar test described with modifications. Mice were removed from home cages and their forepaws were placed on a horizontal stainless-steel rod, 0.5 cm in diameter, positioned 3.5 cm above the bench surface. […] The arbitrary cutoff time for cataleptic mice was 60 s. Hypothermia was then evaluated by measuring core body temperature with a rectal probe (Ellab Inc., Denver, CO, USA).
(§3) To determine a working range of CP 55,940 doses that induce catalepsy and hypothermia through CB1R, a dose–response curve for CP 55,940 was constructed first. Pharmacologically naïve Cnr1^−/− and wild-type littermates were injected with increasing doses of CP 55,940 (0.1, 0.3, 1, and 3 mg/kg; i.p.) at 30 min intervals. Hypothermia and catalepsy tests were performed every 30 min before ordering the next dose of CP 55,940.

CB1R [2] = target: T1, CB1R; test: CP 55,940-induced catalepsy (bar test) in mice; format: in vivo; conditions: CP55,940 0.1–3 mg/kg i.p.
Protocol: as §1, §2, §3

CB1R [3] = target: T1, CB1R; test: Elevated plus maze test of anxiety-related behavior; format: in vivo; conditions: 1 µg i.c.v., tested 1 h later
Protocol: as §1
Anxiety-related behavior was assessed using the elevated plus maze (EPM) test as described, with modifications. C57BL/6J mice were allowed to acclimate in their home cages for 2 h prior to the procedure. Animals received i.c.v infusion of JD5037 1 µg or vehicle and were tested in the EPM one hour later.
Mice were given 5 min to explore an elevated platform (72 cm above the floor) consisting of two opposing open and closed arms (each 30 × 5 cm) crossing each other. Illumination in the open and closed arms was 20 and 90 Lux, respectively. Mice were placed individually in the center of the platform (5 × 5 cm) facing an open arm. The behavior of each mouse was monitored by a computer-assisted video tracking system EthoVision XT (Noldus, Leesburg, VA, USA). The tested categories include total distance (cm) and average velocity (cm/s) of the run in the entire maze, cumulative duration (% of total time) spent in closed and open arms, number of entries into each closed and open arm of the maze (in-zone frequency). Arm entries were defined as crossing of the center point (located at approximately two thirds of the mouse body) into the arm. Number of entries, time spent in the open or closed arms, and distance travelled were measured by an automated HindSight software system (Hindsight, version 1.4, Hindsight Software Solutions Inc., Frisco, TX, USA).

CB1R [4] = target: T1, CB1R; test: Drinking-in-the-dark voluntary ethanol intake (20% ethanol, 4 h); format: in vivo; conditions: for alcohol drinking after oral gavage: wild-type/C57BL/6J mice, oral gavage day 4 (rimonabant 10 mg/kg; JD5037 3 mg/kg; S-MRI-1867 3, 10 mg/kg; R-MRI-1867 10 mg/kg)
Protocol: as §1
The procedure was performed as described, with modifications. Mice were individually housed and acclimated to the room for 5–7 days before testing and randomly assigned to treatment groups. Starting 3 h into the dark cycle, water bottles were replaced with 20% ethanol in 25 × 100 mm glass tubes fitted with metal sippers, Access to the ethanol solution was limited to 4 h every day. […] Immediately after the drinking session, mice were deeply anesthetized with isoflurane. Blood was collected by traumatic avulsion of the orbital globe and kept for 10 min at room temperature in Eppendorf tubes followed by centrifugation at 3000× g for 10 min at 4 °C. Serum was collected and kept frozen in sealed vials at −80 °C until analysis.

CB1R [5] = target: T1, CB1R; design: method as in PMID 31105045; conditions: cited from earlier work
iNOS = target: T2, iNOS (Mus musculus, UniProt P29477); test: Serum endotoxin in portal vein after acute ethanol intoxication; format: in vivo; conditions: 10 mg/kg oral gavage 30 min before 6 g/kg ethanol intragastric
T2 construct: from tissue; host or cells: living C57BL/6J mice (whole animal)
Protocol: The acute intoxication was performed on 8-week-old C57BL/6J mice as developed by, with modifications. […] The animals were fasted overnight. On the day of the experiment, they were transferred to the procedure room and allowed to acclimate to the new environment for 2 h while remaining in their home cages. Animals were divided into six treatment groups. Each mouse received S-MRI-1867 10 mg/kg or R-MRI-1867 10 mg/kg or vehicle by oral gavage, followed 6 g/kg ethanol (30% w/v) or saline by the same administration route 30 min later. Mice were anaesthetized by isoflurane 90 min later and sacrificed for blood withdrawal and tissue collection. To determine endotoxin levels, blood was drawn aseptically from the portal vein without anticoagulant and clotted for 30 min at room temperature. Samples were then centrifuged at 2000× g for 15 min at room temperature. Serum was pipetted off aseptically into new sterile vials and kept frozen at −80 °C until analysis. For the collection of tissue specimens, the entire alimentary tract was removed and cleaned from the mesentery from mice treated with S-MRI-1867 and saline. Stomach and ~5 cm segments of duodenum, jejunum, ileum, and colon were dissected out, flushed three times with 20 mL ice-cold PBS, and kept in −80 °C freezer till analysis.
Serum samples were thawed and diluted 1:5 with sterile water. […]

CB1R [6] = conditions: cited from earlier work
CB1R [7] = target: T1, CB1R; test: Two-bottle free-choice alcohol preference test (15% ethanol); format: in vivo; conditions: for alcohol preference and intake: daily oral gavage days 6–10 (S-MRI-1867 3, 10 mg/kg; R-MRI-1867 10 mg/kg), male C57BL/6J mice
Protocol: The procedure was performed as described, with modifications. Animals were individually housed and acclimated to the paradigm for 5–7 days by having access to two identical water bottles and handled daily to minimize the stress associated with drug testing. Animals were first subjected to a gradual increase in ethanol concentration in a drinking bottle (3%, 6%, 9%, 12%, 15%), while the other bottle contained water. The position of the bottles was changed every day, and alcohol and water bottles were replaced every 4 days. Once alcohol concentration reached 15%, animals remained on the paradigm for 10 days. Starting on day 2, mice received vehicle by oral gavage for 4 days, followed by a daily treatment with the global or peripheral CB1 antagonist (S-MRI-1867 1, 3, 10 mg/kg; R-MRI-1867 10 mg/kg,) or vehicle (control group) for another 5 days, one hour before the dark period. All animals were sacrificed for blood and tissue collection 12–16 h after treatment.

[8] = CB1R-deficient (Cnr1−/−) mice, apart from the highest dose (3 mg/kg)
[9] = wild-type mice, cumulative at 30 min intervals

T1 sequence (P47746 whole entry): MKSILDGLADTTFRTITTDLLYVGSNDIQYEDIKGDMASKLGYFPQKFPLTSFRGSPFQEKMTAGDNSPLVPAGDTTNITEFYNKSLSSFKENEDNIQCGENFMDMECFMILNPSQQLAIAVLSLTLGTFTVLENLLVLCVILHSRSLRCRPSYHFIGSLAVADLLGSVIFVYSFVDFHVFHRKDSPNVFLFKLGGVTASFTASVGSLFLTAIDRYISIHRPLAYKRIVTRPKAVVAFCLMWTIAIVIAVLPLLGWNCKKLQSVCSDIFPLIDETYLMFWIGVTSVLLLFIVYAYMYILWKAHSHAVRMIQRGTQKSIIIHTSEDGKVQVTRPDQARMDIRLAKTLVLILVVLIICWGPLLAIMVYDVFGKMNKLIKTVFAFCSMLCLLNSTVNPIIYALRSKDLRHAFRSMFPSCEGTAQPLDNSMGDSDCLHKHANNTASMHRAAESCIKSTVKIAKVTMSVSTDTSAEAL

CCCCCCC(C)(C)c1ccc([C@@H]2C[C@H](O)CC[C@H]2CCCO)c(O)c1 [CP55,940]
decrease in body temperature (hypothermia) (CB1R [1]; [8]): completely insensitive to treatment
decrease in body temperature (hypothermia) (CB1R [1]; [9]): dose-dependent decrease in body temperature
cataleptic behavior (CB1R [2]; [8]): completely insensitive to treatment
cataleptic behavior (CB1R [2]; [9]): cataleptic behavior

CC(C)[C@H](N=C(NS(=O)(=O)c1ccc(Cl)cc1)N1C[C@H](c2ccccc2)C(c2ccc(Cl)cc2)=N1)C(N)=O [JD5037]
velocity in elevated plus maze (CB1R [3]; 5 min run, n = 6, mean ± s.e.m., vehicle 4.0 ± 0.4): 2.4 ± 0.4 cm/s
total distance traveled in elevated plus maze (CB1R [3]; 5 min run, n = 6, mean ± s.e.m., vehicle 1189.0 ± 111.6): 740.5 ± 130.6 cm
movement between the two closed arms (frequency) (CB1R [3]; vs vehicle): moved less frequently between the two closed arms
open arm entries and exploration (CB1R [3]; vs vehicle): failure to enter open arms
time spent in closed arms (CB1R [3]; vs vehicle): stayed much longer in the closed arms
alcohol drinking after i.c.v. infusion (CB1R [4]; i.c.v. on day 4, one hour before dark period (rimonabant 2 µg; JD5037 1 µg)): ineffective in reducing alcohol drinking
alcohol drinking after oral gavage (CB1R [4]): effectively reduced alcohol drinking
effect on alcohol drinking in CB1R-deficient mice (CB1R [5]): did not occur in CB1R-deficient mice

C/C(N)=N/C(=N\S(=O)(=O)c1ccc(C(F)(F)F)cc1)N1C[C@@H](c2ccccc2)C(c2ccc(Cl)cc2)=N1 [R-MRI-1867]
alcohol drinking after oral gavage (CB1R [4]): unaffected
alcohol-induced increase in plasma levels of LPS (portal serum endotoxin) (iNOS): similarly inhibited
CB1R activity (CB1R [6]): CB1R inactive
alcohol preference and intake (CB1R [7]): remained unaffected

CC(N)=NC(=NS(=O)(=O)c1ccc(C(F)(F)F)cc1)N1C[C@H](c2ccccc2)C(c2ccc(Cl)cc2)=N1 [S-MRI-1867]
alcohol drinking after oral gavage (CB1R [4]): inhibited alcohol consumption in a dose-dependent fashion
alcohol-induced increase in plasma levels of LPS (portal serum endotoxin) (iNOS): similarly inhibited
CB1R inhibitory potency (CB1R [6]): nanomolar
alcohol preference and intake (CB1R [7]): effective in reducing alcohol preference and intake
total liquid consumption or food intake (CB1R [7]; daily oral gavage days 6–10, S-MRI-1867 3, 10 mg/kg): without affecting
